{"source": "paper PMC11489133", "about": "“Obicetrapib exhibits favorable physiochemical and pharmacokinetic properties compared to previous cholesteryl ester transfer protein inhibitors: An integrated summary of results from non‐human primate studies and clinical trials” (Pharmacology Research & Perspectives, 2024)", "key": {"[1]": {"assay": "Phase I food effect trial on obicetrapib bioavailability (TA‐8995‐09)", "format": "in vivo, humans", "conditions": "for Cmax / AUC / t max: both sexes, human, plasma, oral, 10 mg; for t max: read-out: t max, median (minimum, maximum)", "protocol": "(§1) The PK parameters and the effect of food on the bioavailability of obicetrapib in humans have been examined in both Phase I[9] (TA‐8995‐09 CSR, NewAmsterdam Pharma) and Phase II trials.[10], [11], [12], [13] The trials were performed in accordance with the Declaration of Helsinki, Good Clinical Practice Guidelines, and applicable regulatory requirements. Approval was obtained from the relevant ethical review boards for each site. All volunteers provided written informed consent prior to participation. PK parameters were determined using WinNonlin software, version 4.1 or higher (Pharsight/Certara Corporation, USA). Concentrations of obicetrapib were summarized for each treatment group using descriptive statistics.\nThis was an open‐label, randomized, two‐sequence, two‐period, two‐treatment crossover study conducted to evaluate the effect of food on the bioavailability of 10 mg obicetrapib. Thirty healthy adult males and females were randomized to treatment and data were available for 23 participants. In Treatment Period I, participants received a single 10 mg dose of obicetrapib after an overnight fast. In Treatment Period II, participants received a single 10 mg dose of obicetrapib at 30 min following the start of a standardized high‐fat, high‐calorie breakfast that was preceded by an overnight fast. Blood samples were collected at pre‐dose and at intervals over 336 h after dosing in each treatment period. The interval between doses was 49 days. The half‐life of obicetrapib was expected to be less than 6 days; therefore, it was anticipated that 49 days would be well beyond five half‐lives and an adequate washout period (TA‐8995‐09 CSR, NewAmsterdam Pharma)."}, "[2]": {"assay": "TULIP Phase II trial, plasma concentrations of obicetrapib", "format": "in vivo, humans", "conditions": "for % Change in Plasma Level: Week 20 vs EOT, mean (SD); for concentration at 12 weeks / concentration at 20 weeks: both sexes, human, plasma, oral, read-out: Mean (SD) Plasma Level; for concentration at 12 weeks: Week 12 (EOT)", "protocol": "as §1\nTULIP (NCT01970215) was a placebo‐controlled, double‐blind, randomized parallel‐group trial conducted to evaluate the effects of varying doses of obicetrapib as monotherapy and in combination with moderate‐intensity statin therapy on LDL‐C and HDL‐C levels.[10]\nAdditionally, the plasma concentrations of obicetrapib were evaluated during and after the treatment period. Eligible participants had mild dyslipidemia defined as LDL‐C levels between 96–174 mg/dL, HDL‐C levels between 31 and 70 mg/dL, and triglyceride levels <400 mg/dL after a washout for those on lipid‐modifying therapies. Three hundred and sixty‐four participants (mean age: 64.7 years; 81.6% male; 98.1% White; mean body mass index [BMI]: 26.0 kg/m^2) were enrolled at 17 clinical research sites in the Netherlands and Denmark and randomized in a […] ratio to one of nine treatment groups: (1) placebo; (2) 1 mg obicetrapib; (3) 2.5 mg obicetrapib; (4) 5 mg obicetrapib; (5) 10 mg obicetrapib; (6) 10 mg atorvastatin; (7) 10 mg obicetrapib plus 20 mg atorvastatin; (8) 10 mg rosuvastatin; or (9) 10 mg obicetrapib plus 10 mg rosuvastatin. The participants were instructed to take their assigned treatment orally with food once daily for the 12‐week treatment period. After randomization, participants returned to the clinical research site for PK assessments at Weeks 8 and 12 (end of treatment). Participants also completed follow‐up visits two and eight weeks after the end of treatment (Weeks 14 and 20) for final safety and PK assessments. Of the 364 participants randomized, 337 (92.6%) completed the trial and were included in the primary analysis. The PK population (n = 242) included all randomized participants who received at least one dose of obicetrapib and had at least one valid plasma drug concentration data assessment; 227 (93.8%) of the participants in the PK population were included in the 8‐week post‐end of treatment PK analysis (TA‐8995‐03 CSR, NewAmsterdam Pharma)."}, "[3]": {"assay": "ROSE Phase II trial, plasma concentrations of obicetrapib", "format": "in vivo, humans", "conditions": "for % Change in Plasma Level: Week 8 to Week 23, mean (SD); for concentration at 8 weeks / concentration at 23 weeks: both sexes, human, plasma, oral, read-out: Mean (SD) Plasma Level; for concentration at 8 weeks: Week 8 (EOT); for concentration at 23 weeks: Week 23, fifteen weeks after the end of treatment", "protocol": "as §1\nROSE (NCT04753606) was a placebo‐controlled, double‐blind, randomized trial conducted to evaluate the efficacy of obicetrapib as an adjunct to high‐intensity statin therapy for reducing LDL‐C and ApoB levels.[11] A secondary endpoint of the trial included assessing plasma concentrations of obicetrapib during and after the end of treatment. […] One hundred twenty participants (mean age: 61.8 years; 55.8% male; 76.7% White; mean BMI: 31.1 kg/m^2) were enrolled at 17 clinical research sites in the United States and randomized in a 1:1:1 ratio to one of three treatment groups: (1) placebo; (2) 5 mg obicetrapib; or (3) 10 mg obicetrapib. The participants were instructed to take their assigned treatment orally with food once daily at approximately the same time each morning for the 8‐week treatment period. After randomization, participants returned to the clinical research site during Weeks 4 and 8 (end of treatment) for PK assessments. Additionally, participants completed follow‐up visits at four, eight, and 15 weeks after the end of treatment (Weeks 12, 16, and 23) for PK assessments. Of the 120 participants randomized in ROSE, 119 (99.2%) completed treatment; all 120 participants randomized were included in the modified Intent‐to‐Treat (mITT) analysis. The PK population (n = 80) included all randomized participants in the mITT population assigned to the two obicetrapib dose groups who had sufficient blood samples collected for valid estimation of PK parameters. Seventy‐seven (96.3%), 79 (98.8%), and 79 (98.8%) participants in the PK population for ROSE were included in the 4‐, 8‐, and 15‐week post‐end of treatment PK analyses, respectively (TA‐8995‐201 CSR, NewAmsterdam Pharma)."}, "[4]": {"conditions": "cited from earlier work"}, "[5]": {"conditions": "Obicetrapib 10 mg + atorvastatin 20 mg"}, "[6]": {"conditions": "Obicetrapib 10 mg + rosuvastatin 10 mg"}, "[7]": {"conditions": "Obicetrapib 5 mg + high‐intensity statin"}, "[8]": {"conditions": "Obicetrapib 10 mg + high‐intensity statin"}}, "note": "“And” between values parts separate entries of the source, which are not always exact repeats. Equal entries are not always repeated. Where two headings read alike, the source gives them in different places."}
{"compound": "CCOC(=O)N1c2ccc(C(F)(F)F)cc2C(N(Cc2cc(C(F)(F)F)cc(C(F)(F)F)c2)c2ncc(OCCCC(=O)O)cn2)CC1CC", "note": "(stereo not drawn) [Obicetrapib]", "values": [{"measurement": "increase of peak and overall systemic exposure (AUC, C max) under fed compared to fasted conditions", "setting": "[1]; 10 mg dose, high‐fat meal", "value": "~ 1.6 fold and 1.6 fold"}, {"measurement": "least‐squares geometric mean of fed versus fasted ratio, AUC0‐t", "setting": "[1]; 10 mg single dose", "value": 154.9, "unit": "%"}, {"measurement": "least‐squares geometric mean of fed versus fasted ratio, AUC0‐∞", "setting": "[1]; 10 mg single dose", "value": 155.4, "unit": "%"}, {"measurement": "least‐squares geometric mean of fed versus fasted ratio, C max", "setting": "[1]; 10 mg single dose", "value": 158.5, "unit": "%"}, {"measurement": "AUC(0‐t), LSGM Ratio (90% CI) (Fed vs. Fasted)", "setting": "[1]; 10 mg single dose, n = 23", "value": "155 (130, 184)"}, {"measurement": "AUC(0‐∞), LSGM Ratio (90% CI) (Fed vs. Fasted)", "setting": "[1]; 10 mg single dose, n = 23", "value": "155 (129, 187)"}, {"measurement": "C max, LSGM Ratio (90% CI) (Fed vs. Fasted)", "setting": "[1]; 10 mg single dose, n = 23", "value": "159 (126, 199)"}, {"measurement": "Cmax", "setting": "[1]; 10 mg single dose, Fasted, n = 23", "value": 140, "unit": "ng/mL"}, {"measurement": "AUC", "setting": "[1]; 10 mg single dose, Fasted, n = 23, read-out: AUC(0‐t), LS GM (converted)", "value": 12400, "unit": "ng·h/mL"}, {"measurement": "AUC", "setting": "[1]; 10 mg single dose, Fasted, n = 23, read-out: AUC(0‐∞), LS GM (converted)", "value": 16600, "unit": "ng·h/mL"}, {"measurement": "Cmax", "setting": "[1]; 10 mg single dose, Fed (high‐fat, high‐calorie breakfast), n = 23", "value": 222, "unit": "ng/mL"}, {"measurement": "AUC", "setting": "[1]; 10 mg single dose, Fed, n = 23, read-out: AUC(0‐t), LS GM (converted)", "value": 19200, "unit": "ng·h/mL"}, {"measurement": "AUC", "setting": "[1]; 10 mg single dose, Fed, n = 23, read-out: AUC(0‐∞), LS GM (converted)", "value": 25800, "unit": "ng·h/mL"}, {"measurement": "t max", "setting": "[1]; 10 mg single dose, fasted", "value": 5, "unit": "h"}, {"measurement": "t max", "setting": "[1]; 10 mg single dose, fed", "value": 5.5, "unit": "h"}, {"measurement": "% Change in Plasma Level", "setting": "[2]; Obicetrapib 5 mg", "value": "−97.8 (0.8) %"}, {"measurement": "Mean (SD) Plasma Level", "setting": "[2]; Obicetrapib 10 mg + atorvastatin 20 mg, Week 20, eight weeks after the end of treatment", "value": "10.8 (5.9) ng/mL"}, {"measurement": "% Change in Plasma Level", "setting": "[2]; [5]", "value": "−97.4 (1.0) %"}, {"measurement": "% Change in Plasma Level", "setting": "[2]; [6]", "value": "−97.3 (1.3) %"}, {"measurement": "% Change in Plasma Level", "setting": "[2]; Obicetrapib 10 mg", "value": "−97.7 (0.7) %"}, {"measurement": "concentration at 12 weeks", "setting": "[2]; 5 mg, Obicetrapib 5 mg once daily", "value": 258, "unit": "ng/mL"}, {"measurement": "concentration at 20 weeks", "setting": "[2]; 5 mg, Obicetrapib 5 mg, Week 20, eight weeks after the end of treatment", "value": 5.9, "unit": "ng/mL"}, {"measurement": "concentration at 12 weeks", "setting": "[2]; 10 mg, Obicetrapib 10 mg once daily", "value": 408, "unit": "ng/mL"}, {"measurement": "concentration at 20 weeks", "setting": "[2]; 10 mg, Obicetrapib 10 mg, Week 20, eight weeks after the end of treatment", "value": 9.8, "unit": "ng/mL"}, {"measurement": "concentration at 12 weeks", "setting": "[2]; [5]", "value": 404, "unit": "ng/mL"}, {"measurement": "concentration at 12 weeks", "setting": "[2]; [6]", "value": 402, "unit": "ng/mL"}, {"measurement": "concentration at 20 weeks", "setting": "[2]; Obicetrapib 10 mg + rosuvastatin 10 mg, Week 20, eight weeks after the end of treatment", "value": 11.3, "unit": "ng/mL"}, {"measurement": "decrease of plasma levels", "setting": "[2]; eight weeks after the last dose (Week 20), all treatment groups", "value": "approximately 97%"}, {"measurement": "% Change in Plasma Level", "setting": "[3]; [7]", "value": "−98.5 (1.7) %"}, {"measurement": "% Change in Plasma Level", "setting": "[3]; Obicetrapib 5 mg + high‐intensity statin, listed as obicetrapib", "value": "−98.5", "unit": "%"}, {"measurement": "% Change in Plasma Level", "setting": "[3]; [8]", "value": "−98.4 (1.9) %"}, {"measurement": "concentration at 8 weeks", "setting": "[3]; [7]", "value": 254, "unit": "ng/mL"}, {"measurement": "concentration at 23 weeks", "setting": "[3]; [7]", "value": 2.9, "unit": "ng/mL"}, {"measurement": "concentration at 8 weeks", "setting": "[3]; [8]", "value": 395, "unit": "ng/mL"}, {"measurement": "concentration at 23 weeks", "setting": "[3]; [8]", "value": 5.6, "unit": "ng/mL"}, {"measurement": "PSA", "setting": "[4]", "value": 105, "unit": "Å^2"}]}
